Assay results taken from patent US8192962B2, “Processes for detecting toxic substances” (Daikin Industries, Ltd., priority 2001, dated 2012).

Test system: Detoxification protein genes
Test: DNA chip mRNA expression in yeast, detoxification protein genes (Table 8)
Type: cell-based, Saccharomyces cerevisiae S288C
In short: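 Cells were grown at 25° C. in YPD, treated at logarithmic phase for 2 h with a chemical at a concentration inhibiting growth but not causing death, and compared with untreated cultures. Labeled cDNA was hybridized to a DNA chip carrying all yeast genes, and the expression ratio was taken from scanner fluorescence.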

COc1cc(CNC(=O)CCCCC=CC(C)C)ccc1O [(12), 8-methyl-N-vanillyl-6-nonenamide]
The level of expressed mRNA in the presence of chemical substance/The level of expressed mRNA in the absence of chemical substance (yeast gene YBL064C): 1.7 | The level of expressed mRNA in the presence of chemical substance/The level of expressed mRNA in the absence of chemical substance (yeast gene YBR008C): 0.8 | The level of expressed mRNA in the presence of chemical substance/The level of expressed mRNA in the absence of chemical substance (yeast gene YBR145W): 1.0 | The level of expressed mRNA in the presence of chemical substance/The level of expressed mRNA in the absence of chemical substance (yeast gene YBR244W): 0.5 | The level of expressed mRNA in the presence of chemical substance/The level of expressed mRNA in the absence of chemical substance (yeast gene YBR293W): 1.0 | The level of expressed mRNA in the presence of chemical substance/The level of expressed mRNA in the absence of chemical substance (yeast gene YCL035C): 1.5 | The level of expressed mRNA in the presence of chemical substance/The level of expressed mRNA in the absence of chemical substance (yeast gene YCL069W): 0.9 | The level of expressed mRNA in the presence of chemical substance/The level of expressed mRNA in the absence of chemical substance (yeast gene YCR083W): 1.1 | The level of expressed mRNA in the presence of chemical substance/The level of expressed mRNA in the absence of chemical substance (yeast gene YDL100C): 1.5 | The level of expressed mRNA in the presence of chemical substance/The level of expressed mRNA in the absence of chemical substance (yeast gene YDL168W): 0.6 | The level of expressed mRNA in the presence of chemical substance/The level of expressed mRNA in the absence of chemical substance (yeast gene YDR256C): 0.8 | The level of expressed mRNA in the presence of chemical substance/The level of expressed mRNA in the absence of chemical substance (yeast gene YDR453C): 0.9 | The level of expressed mRNA in the presence of chemical substance/The level of expressed mRNA in the absence of chemical substance (yeast gene YDR513W): 0.9 | The level of expressed mRNA in the presence of chemical substance/The level of expressed mRNA in the absence of chemical substance (yeast gene YDR538W): 0.7 | The level of expressed mRNA in the presence of chemical substance/The level of expressed mRNA in the absence of chemical substance (yeast gene YEL027W): 0.9 | The level of expressed mRNA in the presence of chemical substance/The level of expressed mRNA in the absence of chemical substance (yeast gene YEL065W): 1.7 | The level of expressed mRNA in the presence of chemical substance/The level of expressed mRNA in the absence of chemical substance (yeast gene YER185W): 1.1 | The level of expressed mRNA in the presence of chemical substance/The level of expressed mRNA in the absence of chemical substance (yeast gene YFL050C): 0.9 | The level of expressed mRNA in the presence of chemical substance/The level of expressed mRNA in the absence of chemical substance (yeast gene YGL013C): 1.0 | The level of expressed mRNA in the presence of chemical substance/The level of expressed mRNA in the absence of chemical substance (yeast gene YGL254W): 1.2 | The level of expressed mRNA in the presence of chemical substance/The level of expressed mRNA in the absence of chemical substance (yeast gene YGR088W): 1.1 | The level of expressed mRNA in the presence of chemical substance/The level of expressed mRNA in the absence of chemical substance (yeast gene YGR138C): 0.6 | The level of expressed mRNA in the presence of chemical substance/The level of expressed mRNA in the absence of chemical substance (yeast gene YGR197C): 1.2 | The level of expressed mRNA in the presence of chemical substance/The level of expressed mRNA in the absence of chemical substance (yeast gene YGR209C): 0.9 | The level of expressed mRNA in the presence of chemical substance/The level of expressed mRNA in the absence of chemical substance (yeast gene YGR224W): 0.6 | The level of expressed mRNA in the presence of chemical substance/The level of expressed mRNA in the absence of chemical substance (yeast gene YHL040C): 2.0 | The level of expressed mRNA in the presence of chemical substance/The level of expressed mRNA in the absence of chemical substance (yeast gene YHL047C): 2.6 | The level of expressed mRNA in the presence of chemical substance/The level of expressed mRNA in the absence of chemical substance (yeast gene YHR008C): 0.7 | The level of expressed mRNA in the presence of chemical substance/The level of expressed mRNA in the absence of chemical substance (yeast gene YHR048W): 0.9 | The level of expressed mRNA in the presence of chemical substance/The level of expressed mRNA in the absence of chemical substance (yeast gene YHR053C): 1.1 | The level of expressed mRNA in the presence of chemical substance/The level of expressed mRNA in the absence of chemical substance (yeast gene YHR055C): 1.2 | The level of expressed mRNA in the presence of chemical substance/The level of expressed mRNA in the absence of chemical substance (yeast gene YIR002C): 1.3 | The level of expressed mRNA in the presence of chemical substance/The level of expressed mRNA in the absence of chemical substance (yeast gene YIR038C): 1.1 | The level of expressed mRNA in the presence of chemical substance/The level of expressed mRNA in the absence of chemical substance (yeast gene YJL101C): 0.7 | The level of expressed mRNA in the presence of chemical substance/The level of expressed mRNA in the absence of chemical substance (yeast gene YJR104C): 0.9 | The level of expressed mRNA in the presence of chemical substance/The level of expressed mRNA in the absence of chemical substance (yeast gene YKL026C): 1.0 | The level of expressed mRNA in the presence of chemical substance/The level of expressed mRNA in the absence of chemical substance (yeast gene YKL064W): 0.7 | The level of expressed mRNA in the presence of chemical substance/The level of expressed mRNA in the absence of chemical substance (yeast gene YKR066C): 0.9 | The level of expressed mRNA in the presence of chemical substance/The level of expressed mRNA in the absence of chemical substance (yeast gene YKR105C): 0.8 | The level of expressed mRNA in the presence of chemical substance/The level of expressed mRNA in the absence of chemical substance (yeast gene YKR106W): 0.8 | The level of expressed mRNA in the presence of chemical substance/The level of expressed mRNA in the absence of chemical substance (yeast gene YLL028W): 1.3 | The level of expressed mRNA in the presence of chemical substance/The level of expressed mRNA in the absence of chemical substance (yeast gene YLL057C): 0.7 | The level of expressed mRNA in the presence of chemical substance/The level of expressed mRNA in the absence of chemical substance (yeast gene YLL060C): 1.1 | The level of expressed mRNA in the presence of chemical substance/The level of expressed mRNA in the absence of chemical substance (yeast gene YLR043C): 0.8 | The level of expressed mRNA in the presence of chemical substance/The level of expressed mRNA in the absence of chemical substance (yeast gene YLR046C): 0.8 | The level of expressed mRNA in the presence of chemical substance/The level of expressed mRNA in the absence of chemical substance (yeast gene YML028W): 1.6 | The level of expressed mRNA in the presence of chemical substance/The level of expressed mRNA in the absence of chemical substance (yeast gene YML116W): 0.5 | The level of expressed mRNA in the presence of chemical substance/The level of expressed mRNA in the absence of chemical substance (yeast gene YMR015C): 0.9 | The level of expressed mRNA in the presence of chemical substance/The level of expressed mRNA in the absence of chemical substance (yeast gene YMR038C): 0.9 | The level of expressed mRNA in the presence of chemical substance/The level of expressed mRNA in the absence of chemical substance (yeast gene YNL239W): 1.5 | The level of expressed mRNA in the presence of chemical substance/The level of expressed mRNA in the absence of chemical substance (yeast gene YNL241C): 2.0 | The level of expressed mRNA in the presence of chemical substance/The level of expressed mRNA in the absence of chemical substance (yeast gene YNL259C): 0.7 | The level of expressed mRNA in the presence of chemical substance/The level of expressed mRNA in the absence of chemical substance (yeast gene YOL158C): 0.9 | The level of expressed mRNA in the presence of chemical substance/The level of expressed mRNA in the absence of chemical substance (yeast gene YOR031W): 0.8 | The level of expressed mRNA in the presence of chemical substance/The level of expressed mRNA in the absence of chemical substance (yeast gene YOR153W): 4.0 | The level of expressed mRNA in the presence of chemical substance/The level of expressed mRNA in the absence of chemical substance (yeast gene YOR247W): 0.6 | The level of expressed mRNA in the presence of chemical substance/The level of expressed mRNA in the absence of chemical substance (yeast gene YOR251C): 0.9 | The level of expressed mRNA in the presence of chemical substance/The level of expressed mRNA in the absence of chemical substance (yeast gene YOR273C): 0.8 | The level of expressed mRNA in the presence of chemical substance/The level of expressed mRNA in the absence of chemical substance (yeast gene YPL163C): 0.9 | The level of expressed mRNA in the presence of chemical substance/The level of expressed mRNA in the absence of chemical substance (yeast gene YPR200C): 0.4
